From patent US7410975B2, “Small molecule toll-like receptor (TLR) antagonists” (Coley Pharmaceutical Group, Inc., priority 2003, dated 2008)

target: T1, human TLR9 (hTLR9) (Homo sapiens, UniProt Q9NR96); assay: Antagonist screen, hTLR9-NFκB-293 cells, 6× NF-κB-luciferase reporter, with EC50 of CpG ODN 2006; assay type: cell-based; conditions: FIG. 1, graph
T1 construct: expressed in transfected cells
T1 sequence (Q9NR96 26-1032): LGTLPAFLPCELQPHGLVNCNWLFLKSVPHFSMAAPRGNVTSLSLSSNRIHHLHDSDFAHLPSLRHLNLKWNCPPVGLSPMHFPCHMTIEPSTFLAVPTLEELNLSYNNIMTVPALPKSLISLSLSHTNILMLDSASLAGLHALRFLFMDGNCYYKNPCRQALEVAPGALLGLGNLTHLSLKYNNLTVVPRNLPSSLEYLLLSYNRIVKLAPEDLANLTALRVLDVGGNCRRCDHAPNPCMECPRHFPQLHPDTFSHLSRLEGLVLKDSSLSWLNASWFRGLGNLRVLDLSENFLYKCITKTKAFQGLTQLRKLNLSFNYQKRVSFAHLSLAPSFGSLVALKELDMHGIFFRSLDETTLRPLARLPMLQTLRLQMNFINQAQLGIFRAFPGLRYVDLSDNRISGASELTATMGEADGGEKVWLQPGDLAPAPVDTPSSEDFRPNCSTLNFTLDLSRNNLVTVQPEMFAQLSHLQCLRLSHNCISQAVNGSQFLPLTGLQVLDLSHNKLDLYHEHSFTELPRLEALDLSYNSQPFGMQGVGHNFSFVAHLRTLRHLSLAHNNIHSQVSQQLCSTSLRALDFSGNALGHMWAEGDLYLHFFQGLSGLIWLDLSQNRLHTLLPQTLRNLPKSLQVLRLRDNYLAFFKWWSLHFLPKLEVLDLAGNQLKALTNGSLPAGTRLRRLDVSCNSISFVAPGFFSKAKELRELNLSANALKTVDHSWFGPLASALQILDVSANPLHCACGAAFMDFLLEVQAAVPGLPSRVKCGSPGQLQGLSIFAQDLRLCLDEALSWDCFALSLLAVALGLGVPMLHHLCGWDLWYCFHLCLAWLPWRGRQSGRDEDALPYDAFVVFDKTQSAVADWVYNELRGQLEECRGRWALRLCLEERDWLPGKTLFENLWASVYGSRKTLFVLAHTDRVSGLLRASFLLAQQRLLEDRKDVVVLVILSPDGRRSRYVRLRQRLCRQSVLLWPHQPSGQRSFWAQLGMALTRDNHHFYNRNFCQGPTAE
Description: Candidate small molecules for initial screening were obtained from a commercially available library of 880 off-patent small molecules selected for structural diversity and proven bioavailability in humans (Prestwick Chemical Library). […] Results were measured as fold induction over baseline luciferase activity measured in the absence of ODN 2006 and compared to fold induction over baseline in the presence of the EC50 concentration of ODN 2006 alone. […] Additional screening was performed in like manner using additional small molecules selected from another library or specifically prepared for this purpose.
The method is described in greater detail as follows. The cells for each individual cell clone (hTLR3-NFκB-293, hTLR7-NFκB-293, hTLR8-NFκB-293 and hTLR9-NFκB-293) were counted and seeded one day before the stimulation at 1.5×10^4 cells per well in 96-well cell culture plates. To become adherent the cells were incubated after seeding overnight at 37° C. in 5% CO2 humidified air.
The screen for each compound was performed at the same time for all of the receptors TLR3, TLR7, TLR8 and TLR9. Up to fifteen test compounds, each assayed in duplicate at each of three different final concentrations (0.5 μg/ml, 5 μg/ml, and 50 μg/ml), were used for 16 h cell stimulation on a single multiwell culture plate. A 4× final concentration master plate was created to prepare the different test compounds before they were added to the cells.
Controls were added as duplicates individually for each cell clone on the cell culture plate. Positive controls were used as follows (final concentrations): 50 μg/ml poly(I:C) for hTLR3-NFκB-293; 8 μM resiquimod (R848) for hTLR7-NFκB-293; 30 μM R848 for hTLR8-NFκB-293; and 2.5 μM CpG-ODN 2006 for hTLR9-NFκB-293. Media alone was used as negative control. After addition of controls and small molecules, the cell clones were additionally stimulated with the EC50 concentration of the appropriate receptor-specific ligand.
The mean value of wells H2 and H5 (each with cells and EC50 concentration of the appropriate receptor-specific ligand) divided by the mean of wells H3 and H6 (each with cells alone) yielded the baseline response (i.e., fold induction of luciferase activity) to EC50 concentration of the appropriate receptor-specific ligand.
After 16 h stimulation the supernatant was removed and the cells treated with lysis buffer and stored at −80° C. before measuring.
For each screen result a graphical documentation was performed.
The baseline result (measured with addition of the EC50 concentration of the receptor-specific ligand) for each cell culture plate was measured as described above. Antagonistic effects were measured by down regulation compared to the baseline. Antagonists were scored as follows: • 13: compounds for which there was clear down regulation at 0.5 μg/ml, 5 μg/ml, and 50 μg/ml; • 12: compounds for which there was clear down regulation at 5 μg/ml and 50 μg/ml; • 11: compounds for which there was clear down regulation only at 50 μg/ml; • —: compounds for which there was no clear down regulation even at 50 μg/ml. Agonists

| Compound | inhibition of TLR9 signaling in response to CpG ODN 2006 (FIG. 1) |
| --- | --- |
| COc1ccc2c(c1)[nH]c1c(C)nccc12.Cl [compound 613, harmine hydrochloride] | concentration-dependent inhibition |
| OCc1cc2c(cn1)[nH]c1ccccc12 [compound 878, 3-hydroxymethyl-beta-carboline] | concentration-dependent inhibition |

same assay, conditions: compound at 0.5, 5, 50 μg/ml; EC50 concentration of CpG ODN 2006; 16 h; NF-κB-luciferase

| Compound | hTLR9 (inhibitory effect, antagonist score) |
| --- | --- |
| O=C(O)c1cccc2c1-c1ccccc1/C2=N/Nc1ccc([N+](=O)[O-])cc1[N+](=O)[O-] [compound 944] | — (compounds for which there was no clear down regulation even at 50 μg/ml) |
| COCCCNC(=O)c1ccc2c(c1N)C(=O)c1ccccc1C2=O [compound 1337] | 12 (compounds for which there was clear down regulation at 5 μg/ml and 50 μg/ml) |
| Clc1ccc(C(c2ccccc2Cl)C(Cl)Cl)cc1 (centres unmarked) [compound 833, Mitotane] | 12 (compounds for which there was clear down regulation at 5 μg/ml and 50 μg/ml) |
| CC(=O)c1ccc2c(c1)N(CCCN(C)C)c1ccccc1S2.O=C(O)/C=C\C(=O)O [compound 576, Acetopromazinemaleate salt] | 12 (compounds for which there was clear down regulation at 5 μg/ml and 50 μg/ml) |
| O=C1Nc2ccccc2Oc2ccc([N+](=O)[O-])cc21 [compound 1352] | 11 (compounds for which there was clear down regulation only at 50 μg/ml) |
| CCCCOC(=O)c1cc([N+](=O)[O-])cc2c1-c1cc(CO)c([NH+]([O-])O)cc1C2=C(C#N)C#N (centres unmarked) [compound 939] | 11 (compounds for which there was clear down regulation only at 50 μg/ml) |
| O=C(O)c1cccc2c1/C(=N/O)c1ccccc1-2 [compound 918] | — (compounds for which there was no clear down regulation even at 50 μg/ml) |
| COC(=O)C1=CO[C@@H](C)[C@@H]2CN3CCc4c([nH]c5ccccc45)[C@@H]3C[C@H]12 [compound 593, Tetrahydroalstonine] | 11 (compounds for which there was clear down regulation only at 50 μg/ml) |
| Cl.Cl.OCCN1CCN(CC/C=C2/c3ccccc3Sc3ccc(C(F)(F)F)cc32)CC1 [compound 340, Flupentixoldihydrochloride cis-(Z)] | 11 (compounds for which there was clear down regulation only at 50 μg/ml) |
| CS(=O)(=O)O.OC(CCN1CCCCC1)(c1ccccc1)c1ccccc1 [compound 799, Pridinolmethanesulfonate salt] | 11 (compounds for which there was clear down regulation only at 50 μg/ml) |
| Cc1cccc(C)c1NC(=O)CN1CCN(CCCC(c2ccc(F)cc2)c2ccc(F)cc2)CC1 [compound 381, Lidoflazine] | 11 (compounds for which there was clear down regulation only at 50 μg/ml) |
| CC1NCCc2c1[nH]c1ccccc21.Cl (racemic) [compound 619, Eleagnine hydrochloride (R,S)] | 12 (compounds for which there was clear down regulation at 5 μg/ml and 50 μg/ml) |
| COc1ccc2c(c1)[nH]c1c(C)nccc12.Cl [compound 613, harmine hydrochloride] | 13 (compounds for which there was clear down regulation at 0.5 μg/ml, 5 μg/ml, and 50 μg/ml) |
| Cc1c2ccncc2c(C)c2c1[nH]c1ccccc12 [compound 614, Ellipticine] | 13 (compounds for which there was clear down regulation at 0.5 μg/ml, 5 μg/ml, and 50 μg/ml) |
| Cl.Cl.Fc1ccc(C(OCCN2CCN(CCCc3ccccc3)CC2)c2ccc(F)cc2)cc1 [compound 386, GBR 12909hydrochloride] | — (compounds for which there was no clear down regulation even at 50 μg/ml) |
| OCCN1CCN(CCCN2c3ccccc3Sc3ccc(Cl)cc32)CC1 [compound 125, Perphenazine] | 11 (compounds for which there was clear down regulation only at 50 μg/ml) |
| Flunarizinehydrochloride [compound 312] | 12 (compounds for which there was clear down regulation at 5 μg/ml and 50 μg/ml) |
| OCc1cc2c(cn1)[nH]c1ccccc12 [compound 878, 3-hydroxymethyl-beta-carboline] | 12 (compounds for which there was clear down regulation at 5 μg/ml and 50 μg/ml) |
| CC(NCCC(c1ccccc1)c1ccccc1)c1ccccc1.Cl (centres unmarked) [compound 270, Fendiline hydrochloride] | — (compounds for which there was no clear down regulation even at 50 μg/ml) |
| Trifluoperazinedihydrochloride [compound 313] | 11 (compounds for which there was clear down regulation only at 50 μg/ml) |
| Cl.Clc1ccc(C(OCCN2CCCCC2)c2ccccc2)cc1 (centres unmarked) [compound 793, Cloperastinehydrochloride] | 12 (compounds for which there was clear down regulation at 5 μg/ml and 50 μg/ml) |
| CC(CN(C)C)CN1c2ccccc2Sc2ccccc21.CC(CN(C)C)CN1c2ccccc2Sc2ccccc21.O=C(O)C(O)C(O)C(=O)O (centres unmarked) [compound 842, Trimeprazine tartrate] | — (compounds for which there was no clear down regulation even at 50 μg/ml) |
| CN1CCCCC1CCN1c2ccccc2Sc2ccc([S+](C)[O-])cc21.O=S(=O)(O)c1ccccc1 (centres unmarked) [compound 529, Mesoridazine besylate] | 11 (compounds for which there was clear down regulation only at 50 μg/ml) |
| CN1CCC2C(C1)c1ccccc1N2Cc1ccccc1 (centres unmarked) [compound 455, Mebhydroline 1,5 naphtalenedisulfonate] | 12 (compounds for which there was clear down regulation at 5 μg/ml and 50 μg/ml) |
| NC(=O)c1cc(N)c2c(c1N)C(=O)c1ccccc1C2=O [compound 1158] | 11 (compounds for which there was clear down regulation only at 50 μg/ml) |
| CCN(CC)CCCN(CC(=O)C1c2ccc(Cl)cc2NC(=O)c2ccccc21)C(=O)c1ccccc1 (centres unmarked) [compound 1013] | 11 (compounds for which there was clear down regulation only at 50 μg/ml) |
| COC(=O)c1cccc2c1-c1ccccc1/C2=N/O [compound 904] | 13 (compounds for which there was clear down regulation at 0.5 μg/ml, 5 μg/ml, and 50 μg/ml) |
| Prochlorperazinedimaleate [compound 399] | 12 (compounds for which there was clear down regulation at 5 μg/ml and 50 μg/ml) |
| CCN(CC)C(C)CN1c2ccccc2Sc2ccccc21.Cl (centres unmarked) [compound 840, Ethopropazinehydrochloride] | 11 (compounds for which there was clear down regulation only at 50 μg/ml) |
| CCCC(C(=O)OCCN(CC)CC)(c1ccccc1)c1ccccc1.Cl [compound 778, Proadifen hydrochloride] | 11 (compounds for which there was clear down regulation only at 50 μg/ml) |
